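Step 1: Grow cells in 96-well plates. Step 2: Expose to compound for 48 hours at 5 concentrations. Step 3: Interpolate endpoints linearly; if unreached, use highest concentration. GI50 is the concentration that inhibits growth by half. At the TGI there is no net growth.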
What was measured:
Test in all cases: NCI-60 cell line screen, 48 h
UACC-62 melanoma = test system: UACC-62 melanoma
SNB-75 CNS = test system: SNB-75 CNS
EKVX NSCLC = test system: EKVX NSCLC
BT-549 breast = test system: BT-549 breast
SK-MEL-5 melanoma = test system: SK-MEL-5 melanoma
UACC-257 melanoma = test system: UACC-257 melanoma
K-562 leukemia = test system: K-562 leukemia
MOLT-4 leukemia = test system: MOLT-4 leukemia
HOP-92 NSCLC = test system: HOP-92 NSCLC
RXF 393 renal = test system: RXF 393 renal
HS 578T breast = test system: HS 578T breast
UO-31 renal = test system: UO-31 renal
NCI-H460 lung = test system: NCI-H460 lung
MDA-MB-231 breast = test system: MDA-MB-231 breast
NCI/ADR-RES ovarian = test system: NCI/ADR-RES ovarian
RPMI-8226 leukemia = test system: RPMI-8226 leukemia
MDA-N = test system: MDA-N
SK-MEL-2 melanoma = test system: SK-MEL-2 melanoma
MDA-MB-435 = test system: MDA-MB-435
KM12 colon = test system: KM12 colon
U251 CNS = test system: U251 CNS
SF-268 CNS = test system: SF-268 CNS
ACHN renal = test system: ACHN renal
SK-MEL-28 melanoma = test system: SK-MEL-28 melanoma
HCT-15 colon = test system: HCT-15 colon
OVCAR-8 ovarian = test system: OVCAR-8 ovarian
SK-OV-3 ovarian = test system: SK-OV-3 ovarian
IGROV1 ovarian = test system: IGROV1 ovarian
HCT-116 colon = test system: HCT-116 colon
CCRF-CEM leukemia = test system: CCRF-CEM leukemia
HOP-62 NSCLC = test system: HOP-62 NSCLC
PC-3 prostate = test system: PC-3 prostate
OVCAR-5 ovarian = test system: OVCAR-5 ovarian
NCI-H23 lung = test system: NCI-H23 lung
DU-145 prostate = test system: DU-145 prostate
CAKI-1 renal = test system: CAKI-1 renal
HCC-2998 colon = test system: HCC-2998 colon
A549 NSCLC = test system: A549 NSCLC
NCI-H226 lung = test system: NCI-H226 lung
TK-10 renal = test system: TK-10 renal
HT29 colon = test system: HT29 colon
SNB-19 CNS = test system: SNB-19 CNS
SW-620 colon = test system: SW-620 colon
COLO 205 colon = test system: COLO 205 colon
SF-295 CNS = test system: SF-295 CNS
MALME-3M melanoma = test system: MALME-3M melanoma
SF-539 CNS = test system: SF-539 CNS
M14 melanoma = test system: M14 melanoma
NCI-H522 lung = test system: NCI-H522 lung
OVCAR-3 ovarian = test system: OVCAR-3 ovarian
786-0 renal = test system: 786-0 renal
LOX IMVI melanoma = test system: LOX IMVI melanoma
HL-60(TB) leukemia = test system: HL-60(TB) leukemia
OVCAR-4 ovarian = test system: OVCAR-4 ovarian
MCF7 breast = test system: MCF7 breast
SN12C renal = test system: SN12C renal
T-47D breast = test system: T-47D breast
A498 renal = test system: A498 renal

N#Cc1ccccc1CSc1ncnc2nc[nH]c12
GI50 (UACC-62 melanoma): 77.2 µM | GI50 (SNB-75 CNS): 9.8 µM | TGI (SNB-75 CNS): 67.1 µM | GI50 (EKVX NSCLC): 90.1 µM | GI50 (BT-549 breast): 56.6 µM | GI50 (SK-MEL-5 melanoma): 74.3 µM | GI50 (UACC-257 melanoma): 44.5 µM | GI50 (K-562 leukemia): 67.2 µM | GI50 (MOLT-4 leukemia): 80.3 µM | GI50 (HOP-92 NSCLC): 28.6 µM | GI50 (RXF 393 renal): 94.9 µM | GI50 (HS 578T breast): 51.9 µM | GI50 (UO-31 renal): 47.4 µM | GI50 (NCI-H460 lung): 83.3 µM | GI50 (MDA-MB-231 breast): 51 µM | GI50 (NCI/ADR-RES ovarian): 60.4 µM | GI50 (RPMI-8226 leukemia): 53.1 µM | GI50 (MDA-N): 83.3 µM

O=C(NC(Cc1ccccc1)(Cc1ccc(O)cn1)C(=O)O)c1ccccc1 (configuration not stated)
TGI (SK-MEL-2 melanoma): > 100 µM | TGI (MDA-MB-435): > 100 µM | TGI (KM12 colon): > 100 µM | TGI (U251 CNS): > 100 µM | TGI (SF-268 CNS): > 100 µM | TGI (UACC-62 melanoma): > 100 µM | TGI (ACHN renal): > 100 µM | TGI (SNB-75 CNS): > 100 µM | TGI (SK-MEL-28 melanoma): > 100 µM | TGI (HCT-15 colon): > 100 µM | TGI (OVCAR-8 ovarian): > 100 µM | TGI (EKVX NSCLC): > 100 µM | TGI (BT-549 breast): > 100 µM | TGI (SK-OV-3 ovarian): > 100 µM | TGI (IGROV1 ovarian): > 100 µM | TGI (HCT-116 colon): > 100 µM | TGI (CCRF-CEM leukemia): > 100 µM | TGI (HOP-62 NSCLC): > 100 µM | TGI (SK-MEL-5 melanoma): > 100 µM | TGI (PC-3 prostate): > 100 µM | TGI (OVCAR-5 ovarian): > 100 µM | TGI (UACC-257 melanoma): > 100 µM | TGI (NCI-H23 lung): > 100 µM | TGI (DU-145 prostate): > 100 µM | TGI (CAKI-1 renal): > 100 µM | TGI (HCC-2998 colon): > 100 µM | TGI (K-562 leukemia): > 100 µM | TGI (MOLT-4 leukemia): > 100 µM | TGI (A549 NSCLC): > 100 µM | TGI (HOP-92 NSCLC): > 100 µM | TGI (RXF 393 renal): > 100 µM | TGI (HS 578T breast): > 100 µM | TGI (NCI-H226 lung): > 100 µM | TGI (TK-10 renal): > 100 µM | TGI (UO-31 renal): > 100 µM | TGI (HT29 colon): > 100 µM | TGI (SNB-19 CNS): > 100 µM | TGI (NCI-H460 lung): > 100 µM | TGI (MDA-MB-231 breast): > 100 µM | TGI (SW-620 colon): > 100 µM | TGI (COLO 205 colon): > 100 µM | TGI (SF-295 CNS): > 100 µM | TGI (NCI/ADR-RES ovarian): > 100 µM | TGI (MALME-3M melanoma): > 100 µM | TGI (SF-539 CNS): > 100 µM | TGI (M14 melanoma): > 100 µM | TGI (NCI-H522 lung): > 100 µM | TGI (OVCAR-3 ovarian): > 100 µM | TGI (786-0 renal): > 100 µM | TGI (LOX IMVI melanoma): > 100 µM | TGI (HL-60(TB) leukemia): 68.2 µM | TGI (RPMI-8226 leukemia): > 100 µM | TGI (OVCAR-4 ovarian): > 100 µM | TGI (MDA-N): > 100 µM

NNC(=S)N/N=C(/C(=O)Nc1ccc(Cl)c(Cl)c1)C(C1OC(=O)c2ccccc21)[N+](=O)[O-] (configuration not stated)
TGI (SK-MEL-2 melanoma): > 100 µM | TGI (MDA-MB-435): > 100 µM | TGI (KM12 colon): > 100 µM | TGI (U251 CNS): > 100 µM | TGI (SF-268 CNS): > 100 µM | TGI (UACC-62 melanoma): > 100 µM | TGI (ACHN renal): > 100 µM | TGI (SNB-75 CNS): > 100 µM | TGI (SK-MEL-28 melanoma): > 100 µM | TGI (HCT-15 colon): > 100 µM | TGI (OVCAR-8 ovarian): > 100 µM | TGI (EKVX NSCLC): > 100 µM | TGI (MCF7 breast): > 100 µM | TGI (BT-549 breast): > 100 µM | TGI (SK-OV-3 ovarian): > 100 µM | TGI (IGROV1 ovarian): > 100 µM | TGI (HCT-116 colon): > 100 µM | TGI (CCRF-CEM leukemia): > 100 µM | TGI (HOP-62 NSCLC): > 100 µM | TGI (SK-MEL-5 melanoma): > 100 µM | TGI (PC-3 prostate): > 100 µM | TGI (OVCAR-5 ovarian): > 100 µM | TGI (UACC-257 melanoma): > 100 µM | TGI (SN12C renal): > 100 µM | TGI (T-47D breast): > 100 µM | TGI (NCI-H23 lung): > 100 µM | TGI (CAKI-1 renal): > 100 µM | TGI (HCC-2998 colon): > 100 µM | TGI (K-562 leukemia): > 100 µM | TGI (MOLT-4 leukemia): > 100 µM | TGI (A549 NSCLC): > 100 µM | TGI (HOP-92 NSCLC): > 100 µM | TGI (RXF 393 renal): > 100 µM | TGI (HS 578T breast): > 100 µM | TGI (NCI-H226 lung): > 100 µM | TGI (TK-10 renal): > 100 µM | TGI (UO-31 renal): > 100 µM | TGI (HT29 colon): > 100 µM | TGI (NCI-H460 lung): > 100 µM | TGI (MDA-MB-231 breast): > 100 µM | TGI (SW-620 colon): > 100 µM | TGI (SF-295 CNS): > 100 µM | TGI (NCI/ADR-RES ovarian): > 100 µM | TGI (MALME-3M melanoma): > 100 µM | TGI (SF-539 CNS): > 100 µM | TGI (M14 melanoma): > 100 µM | TGI (NCI-H522 lung): > 100 µM | TGI (OVCAR-3 ovarian): > 100 µM | TGI (786-0 renal): > 100 µM | TGI (LOX IMVI melanoma): > 100 µM | TGI (HL-60(TB) leukemia): > 100 µM | TGI (RPMI-8226 leukemia): > 100 µM | TGI (OVCAR-4 ovarian): > 100 µM | TGI (MDA-N): > 100 µM | TGI (A498 renal): > 100 µM

— PubChem BioAssay (NCI)
